Results: patent US9302999B2, “Substituted triazoles as herbicides” (E. I. DU PONT DE NEMOURS AND COMPANY, priority 2012, dated 2016)

Legend:
Type in all cases: in vivo
[1] = system: wheat (Triticum aestivum); assay: Test A pre-/postemergence: wheat
In short: (§1)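 Soil medium was loam blended with sand; treatments pre- and postemergence were applied concurrently, postemergence at one- to two-leaf stage. Approximately ten days in greenhouse preceded visual comparison with untreated controls, scored 0 (no effect) to 100 (complete control).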

[2] = system: barnyardgrass (Echinochloa crus-galli); assay: Test A pre-/postemergence: barnyardgrass; settings: Postemergence, 0 to 100 scale, 0 is no effect, 100 is complete control
In short: as §1

[3] = system: barnyardgrass (Echinochloa crus-galli); assay: Test B flooded paddy: barnyardgrass; settings: Flood; 250 g ai/ha; applied to paddy water at 2-leaf stage; visually evaluated after 13 to 15 days
In short: (§2)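 Greenhouse assay lasting 13 to 15 days. Treatment was into water flooding pots 3 cm deep, at the 2-leaf stage, with that level sustained afterwards. Scores compare treated with control plants visually, 100 denoting complete control and 0 no effect; a dash marks no test result.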

[4] = system: sedge, umbrella (small-flower umbrella sedge Cyperus difformis); assay: Test B flooded paddy: sedge, umbrella; settings: Flood; 250 g ai/ha; applied to paddy water at 2-leaf stage; visually evaluated after 13 to 15 days
In short: as §2

rice (Oryza sativa) = assay: Test B flooded paddy: rice; settings: Flood; 250 g ai/ha; applied to paddy water at 2-leaf stage; visually evaluated after 13 to 15 days
In short: as §2

[5] = system: ryegrass, Italian (Italian ryegrass, Lolium multiflorum); assay: Test C pre-/postemergence: ryegrass, Italian
In short: (§3)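 Visual injury scored 0–100 (100 = complete control) against untreated controls after 13–15 greenhouse days. Surfactant-containing solvent formulations applied either to soil after sowing (loam/sand) or over 1- to 4-leaf plants, 2–18 cm tall.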

[6] = system: winter wheat (Triticum aestivum); assay: Test C pre-/postemergence: winter wheat
In short: as §3

[7] = system: pigweed (Amaranthus retroflexus); assay: Test A pre-/postemergence: pigweed
In short: as §1

soybean (Glycine max) = assay: Test C pre-/postemergence: soybean
In short: as §3

[8] = system: lambsquarters (Chenopodium album); assay: Test C pre-/postemergence: lambsquarters
In short: as §3

[9] = system: pigweed (Amaranthus retroflexus); assay: Test C pre-/postemergence: pigweed
In short: as §3

[10] = Postemergence, 125 g ai/ha, 0 to 100 scale, 0 is no effect, 100 is complete control
[11] = Postemergence, 500 g ai/ha, 0 to 100 scale, 0 is no effect, 100 is complete control
[12] = Preemergence, 125 g ai/ha, 0 to 100 scale where 0 is no effect and 100 is complete control
[13] = Preemergence, 500 g ai/ha, 0 to 100 scale (0 no effect, 100 complete control)
[14] = Postemergence, 31 g ai/ha, scale 0 to 100 (0 no effect, 100 complete control)
[15] = Postemergence, 62 g ai/ha, scale 0 to 100 (0 no effect, 100 complete control)
[16] = Postemergence, 125 g ai/ha, scale 0 to 100, 0 no effect, 100 complete control
[17] = Postemergence, 250 g ai/ha, scale 0 to 100 (0 no effect, 100 complete control)
[18] = Preemergence, 31 g ai/ha, scale 0 (no effect) to 100 (complete control)
[19] = Preemergence, 62 g ai/ha, scale of 0 to 100, 0 is no effect, 100 is complete control
[20] = Preemergence, 125 g ai/ha, scale 0 to 100, 0 no effect, 100 complete control
[21] = Preemergence, 250 g ai/ha, scale 0 to 100, 0 no effect, 100 complete control

CCc1nn(-c2ccc(F)c(F)c2)nc1Oc1ccnc(C(F)(F)F)c1 [Compound 171]
Plant response rating, Wheat [1, 10]: 30 | Wheat plant response rating [1, 11]: 40 | Plant response rating, Wheat [1, 12]: 10 | Plant response rating, Wheat [1, 13]: 60 | Plant response rating, Barnyardgrass ([2]; 125 g ai/ha): 80 | Barnyardgrass plant response rating ([2]; 500 g ai/ha): 90 | Plant response rating, Barnyardgrass (0 to 100 scale, 0 is no effect, 100 is complete control) [3]: 70 | Plant response rating, Sedge, Umbrella (0 to 100 scale, 0 is no effect, 100 is complete control) [4]: 85 | Plant response rating, Rice (0 to 100 scale, 0 is no effect, 100 is complete control) (rice (Oryza sativa)): 60 | Plant response rating, Ryegrass, Italian [5, 14]: 5 | Plant response rating, Ryegrass, Italian [5, 15]: 5 | Plant response rating, Ryegrass, Italian [5, 16]: 10 | Plant response rating, Ryegrass, Italian [5, 17]: 10 | Plant response rating, Ryegrass, Italian [5, 18]: 10 | Plant response rating, Ryegrass, Italian [5, 19]: 50 | Plant response rating, Ryegrass, Italian [5, 20]: 60 | Plant response rating, Ryegrass, Italian [5, 21]: 100 | Plant response rating, Wheat [6, 14]: 5 | Plant response rating, Wheat [6, 15]: 10 | Plant response rating, Wheat [6, 16]: 20 | Plant response rating, Wheat [6, 17]: 20 | Plant response rating, Wheat [6, 18]: 0 | Plant response rating, Wheat [6, 19]: 0 | Plant response rating, Wheat [6, 20]: 5 | Plant response rating, Wheat [6, 21]: 45 | Plant response rating, Pigweed [7, 10]: 100 | Pigweed plant response rating [7, 11]: 100 | Plant response rating, Pigweed [7, 12]: 100 | Plant response rating, Pigweed [7, 13]: 100 | Plant response rating, Soybean (soybean (Glycine max); [14]): 25 | Plant response rating, Soybean (soybean (Glycine max); [15]): 35 | Plant response rating, Soybean (soybean (Glycine max); [16]): 40 | Plant response rating, Soybean (soybean (Glycine max); [18]): 0 | Plant response rating, Soybean (soybean (Glycine max); [19]): 0 | Plant response rating, Soybean (soybean (Glycine max); [20]): 5 | Plant response rating, Lambsquarters [8, 14]: 75 | Plant response rating, Lambsquarters [8, 15]: 75 | Plant response rating, Lambsquarters [8, 16]: 95 | Plant response rating, Lambsquarters [8, 17]: 95 | Plant response rating, Lambsquarters [8, 18]: 100 | Plant response rating, Lambsquarters [8, 19]: 100 | Plant response rating, Lambsquarters [8, 21]: 100 | Plant response rating, Pigweed [9, 14]: 70 | Plant response rating, Pigweed [9, 15]: 90 | Plant response rating, Pigweed [9, 16]: 90 | Plant response rating, Pigweed [9, 17]: 98 | Plant response rating, Pigweed [9, 18]: 60 | Plant response rating, Pigweed [9, 19]: 100 | Plant response rating, Pigweed [9, 20]: 100 | Plant response rating, Pigweed [9, 21]: 100
